These results are taken from patent US9434763B2, “Derivatives of pyridinone as inhibitors for tissue transglutaminase” (ZEDIRA GMBH, priority 2012, dated 2016).

Type in all cases: biochemical
For one experiment, the target named is T1, TG6 (transglutaminase 6) (Homo sapiens, UniProt O95932).
T1 construct: purchased Zedira T021
T1 sequence (O95932 1-706): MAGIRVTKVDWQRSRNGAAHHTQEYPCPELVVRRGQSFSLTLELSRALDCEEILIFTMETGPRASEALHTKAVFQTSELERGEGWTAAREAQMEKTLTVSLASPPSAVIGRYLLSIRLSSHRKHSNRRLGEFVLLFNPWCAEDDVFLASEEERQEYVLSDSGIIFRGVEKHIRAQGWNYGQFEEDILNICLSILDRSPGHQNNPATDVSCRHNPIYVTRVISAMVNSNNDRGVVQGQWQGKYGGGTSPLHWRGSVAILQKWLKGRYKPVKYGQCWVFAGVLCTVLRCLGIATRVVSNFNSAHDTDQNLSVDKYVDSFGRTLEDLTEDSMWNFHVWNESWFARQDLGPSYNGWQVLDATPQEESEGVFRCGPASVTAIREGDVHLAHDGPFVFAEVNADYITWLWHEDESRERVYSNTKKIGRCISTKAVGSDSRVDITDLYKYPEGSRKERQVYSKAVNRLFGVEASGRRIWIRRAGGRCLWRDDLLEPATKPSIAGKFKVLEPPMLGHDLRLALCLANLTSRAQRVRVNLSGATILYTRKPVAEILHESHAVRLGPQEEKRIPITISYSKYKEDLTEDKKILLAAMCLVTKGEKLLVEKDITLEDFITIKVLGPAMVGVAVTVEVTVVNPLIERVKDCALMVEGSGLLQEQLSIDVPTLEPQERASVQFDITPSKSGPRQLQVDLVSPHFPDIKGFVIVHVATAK
The experiment is described as follows: Comparative transglutaminase selectivity assay with casein and dansylcadaverine as substrates: TG6. Conditions: casein as substrate. The text has this:
(§1) The comparative determination of different transglutaminases to determine the selectivity was made with casein and dansylcadaverine as substrates. Therefore, the kit T036 (Zedira, Darmstadt; Refs: Lorand et al, Anal Biochem, 1971, 44:221-31) as well as transglutaminase products T009 (transglutaminase 1), T012 (transglutaminase 3), T021 (transglutaminase 6) and T027 (plasma transglutaminase, factor XIII) are used. Therefore, two different IC50 values for the compounds are given.
(§2) The evaluation of the resulting enzyme activity is done using the slope of the straight line obtained by the increase in fluorescence.
(§3) To determine the non-inhibited enzyme activity, DMSO instead of inhibitor stock solution is used. IC50 values are determined by plotting the resulting enzyme activity against the logarithm of the inhibitor concentration. IC50 is defined as the concentration of inhibitor resulting in 50% of enzyme activity.
(§4) It should be noted that it was measured here against casein as substrate, which is why other apparent inhibition values (IC50 value) result.

For a further experiment, the target named is T2, TG1 (transglutaminase 1) (Homo sapiens, UniProt P22735).
T2 construct: purchased Zedira T009
T2 sequence (P22735 1-817): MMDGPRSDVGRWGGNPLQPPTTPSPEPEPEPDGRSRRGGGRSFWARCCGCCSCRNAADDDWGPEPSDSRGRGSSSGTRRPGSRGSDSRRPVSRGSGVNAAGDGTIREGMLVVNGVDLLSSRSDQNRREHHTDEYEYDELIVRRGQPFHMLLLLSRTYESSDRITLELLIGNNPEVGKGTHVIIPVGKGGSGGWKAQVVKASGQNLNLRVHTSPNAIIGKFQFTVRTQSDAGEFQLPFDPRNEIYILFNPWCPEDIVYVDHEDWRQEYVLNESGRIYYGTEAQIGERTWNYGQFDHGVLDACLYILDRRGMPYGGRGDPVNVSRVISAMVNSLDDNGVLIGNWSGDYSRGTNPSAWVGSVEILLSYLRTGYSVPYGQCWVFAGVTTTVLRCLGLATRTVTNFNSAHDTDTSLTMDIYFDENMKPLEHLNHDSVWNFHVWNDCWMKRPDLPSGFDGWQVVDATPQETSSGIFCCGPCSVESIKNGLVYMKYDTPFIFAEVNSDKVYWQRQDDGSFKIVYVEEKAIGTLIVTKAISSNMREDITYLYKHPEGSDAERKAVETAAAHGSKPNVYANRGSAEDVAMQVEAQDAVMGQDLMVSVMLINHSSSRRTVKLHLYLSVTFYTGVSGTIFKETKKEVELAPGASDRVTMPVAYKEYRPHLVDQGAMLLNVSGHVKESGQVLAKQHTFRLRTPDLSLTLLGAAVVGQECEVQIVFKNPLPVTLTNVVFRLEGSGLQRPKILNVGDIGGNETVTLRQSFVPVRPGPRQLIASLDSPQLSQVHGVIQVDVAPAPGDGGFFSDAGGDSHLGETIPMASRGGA
The experiment is described as follows: Comparative transglutaminase selectivity assay with casein and dansylcadaverine as substrates: TG1. The conditions noted are these: casein as substrate.
Description: as §1, §2, §3, §4

Experiment [1] addresses T3, tissue transglutaminase (TG2) (Homo sapiens, UniProt P21980).
T3 construct: purchased Zedira T036 (kit)
T3 sequence (P21980 1-687): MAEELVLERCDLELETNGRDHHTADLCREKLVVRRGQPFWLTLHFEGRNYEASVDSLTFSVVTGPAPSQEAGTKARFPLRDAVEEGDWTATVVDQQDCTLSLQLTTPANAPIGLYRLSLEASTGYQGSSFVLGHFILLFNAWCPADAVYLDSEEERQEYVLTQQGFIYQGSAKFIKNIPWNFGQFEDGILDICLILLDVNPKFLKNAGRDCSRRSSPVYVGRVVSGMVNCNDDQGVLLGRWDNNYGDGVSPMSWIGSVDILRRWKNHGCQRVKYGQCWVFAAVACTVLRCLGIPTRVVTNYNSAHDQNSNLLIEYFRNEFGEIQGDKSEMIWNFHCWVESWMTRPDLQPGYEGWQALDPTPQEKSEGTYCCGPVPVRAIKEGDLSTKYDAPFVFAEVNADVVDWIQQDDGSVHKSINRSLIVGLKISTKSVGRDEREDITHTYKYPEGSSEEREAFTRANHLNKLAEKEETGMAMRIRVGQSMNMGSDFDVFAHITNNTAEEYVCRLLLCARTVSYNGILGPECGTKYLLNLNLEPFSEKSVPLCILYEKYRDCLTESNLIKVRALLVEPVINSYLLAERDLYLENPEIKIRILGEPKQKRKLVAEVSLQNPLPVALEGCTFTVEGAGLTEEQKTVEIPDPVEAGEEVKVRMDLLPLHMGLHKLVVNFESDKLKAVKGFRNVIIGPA
The experiment is described as follows: Comparative transglutaminase selectivity assay with casein and dansylcadaverine as substrates (kit T036): TG2. Conditions: casein as substrate (apparent IC50).
Description: as §1, §2, §3, §4

One may read the IC50 as the concentration at which inhibition is half-maximal. Take `CCOC(=O)/C=C/CC[C@H](NC(C)=O)C(=O)Nc1cccn(CC(=O)NCCC(C)C)c1=O` [A7, (S,E)-Ethyl 6-acetamido-7-(1-(2-(isopentylamino)-2-oxoethyl)-2-oxo-1,2-dihydropyridin-3-ylamino)-7-oxohept-2-enoate]: the values for the half-maximal inhibitory concentration (IC50) (against TG6 (transglutaminase 6); against TG1 (transglutaminase 1); in experiment [1]) were 51 µM, 28.8 µM and 3.6 µM, respectively.

Regarding `CCOC(=O)/C=C/CC[C@H](NC(=O)c1cncn1C)C(=O)Nc1cccn(CC(=O)NCCC(C)C)c1=O` [A19, (S,E)-Ethyl 7-(1-(2-(isopentylamino)-2-oxoethyl)-2-oxo-1,2-dihydropyridin-3-ylamino)-6-(1-methyl-1H-imidazole-5-carboxamido)-7-oxohept-2-enoate], the values for the IC50 (against TG6 (transglutaminase 6); on TG1 (transglutaminase 1); in experiment [1]) were 54.3 µM, 96 µM and 2.39 µM, respectively.

As to `CCOC(=O)/C=C/CC[C@H](NC(=O)CCC(=O)O)C(=O)Nc1cccn(CC(=O)NCCC(C)C)c1=O` [A24, (S,E)-4-(7-Ethoxy-1-(1-(2-(isopentylamino)-2-oxoethyl)-2-oxo-1,2-dihydropyridin-3-ylamino)-1,7-dioxohept-5-en-2-ylamino)-4-oxobutanoic acid], the results for the IC50 (against TG6 (transglutaminase 6); on TG1 (transglutaminase 1); in experiment [1]) were 38.5 µM, 91.9 µM and 7.5 µM, respectively.

Regarding `COC(=O)/C=C/CC[C@H](NC(C)=O)C(=O)Nc1cccn(CC(=O)NCCC(C)C)c1=O` [A29, (S,E)-methyl 6-acetamido-7-(1-(2-(isopentylamino)-2-oxoethyl)-2-oxo-1,2-dihydropyridin-3-ylamino)-7-oxohept-2-enoate], the IC50 is 83.3 µM against TG6 (transglutaminase 6), 28.1 µM against TG1 (transglutaminase 1) and 0.4 µM in experiment [1].

Take `CCOC(=O)/C=C/CC[C@H](NC(=O)CCC(=O)O)C(=O)Nc1cccn(CC(=O)NCC(CC)CC)c1=O` [A30, (S,E)-4-(7-Ethoxy-1-(1-(2-(2-ethylbutylamino)-2-oxoethyl)-2-oxo-1,2-dihydropyridin-3-ylamino)-1,7-dioxohept-5-en-2-ylamino)-4-oxobutanoic acid]: the concentration for half-maximal inhibition (IC50) against TG6 (transglutaminase 6) came out at 32.8 µM; against TG1 (transglutaminase 1), 113 µM; in experiment [1], 3.26 µM.

For `CCOC(=O)/C=C/CC[C@H](NC(C)=O)C(=O)Nc1cccn(CC(=O)N[C@H](C(=O)OC)[C@H](C)CC)c1=O` [A35, (S,E)-ethyl 6-acetamido-7-(1-(2-((2S,3R)-1-methoxy-3-methyl-1-oxopentan-2-ylamino)-2-oxoethyl)-2-oxo-1,2-dihydropyridin-3-ylamino)-7-oxohept-2-enoate], the figures for the IC50 (at TG6 (transglutaminase 6); against TG1 (transglutaminase 1); in experiment [1]) were 21.3 µM, 87.1 µM and 1 µM, respectively.

Take `CCOC(=O)/C=C/CC[C@H](NC(C)=O)C(=O)Nc1cccn(CC(=O)NCCC(CC)CC)c1=O` [A42, (S,E)-ethyl 6-acetamido-7-(1-(2-(3-ethylpentylamino)-2-oxoethyl)-2-oxo-1,2-dihydropyridin-3-ylamino)-7-oxohept-2-enoate]: the half-maximal inhibitory concentration (IC50) against TG6 (transglutaminase 6) amounted to 36.7 µM; at TG1 (transglutaminase 1), 86 µM; in experiment [1] it was 7.1 µM.

For `CCOC(=O)/C=C/CC[C@H](NC(=O)c1cncn1C)C(=O)Nc1cccn(CC(=O)N[C@H](C(=O)O)[C@H](C)CC)c1=O` [A53, (2S,3R)-2-(2-(3-((S,E)-7-Ethoxy-2-(1-methyl-1H-imidazole-5-carboxamido)-7-oxohept-5-enamido)-2-oxopyridin-1(2H)-yl)acetamido)-3-methylpentanoic acid], the results for the IC50 (at TG6 (transglutaminase 6); against TG1 (transglutaminase 1); in experiment [1]) were 26.2 µM, 68.9 µM and 0.833 µM, respectively.

Turning to `CCOC(=O)/C=C/CC[C@H](NC(=O)c1cncn1C)C(=O)Nc1cccn(CC(=O)NCC(CC)CC)c1=O` [A58, (S,E)-Ethyl 7-(1-(2-(2-ethylbutylamino)-2-oxoethyl)-2-oxo-1,2-dihydropyridin-3-ylamino)-6-(1-methyl-1H-imidazole-5-carboxamido)-7-oxohept-2-enoate], the concentration for half-maximal inhibition (IC50) amounted to 66 µM on TG6 (transglutaminase 6), 97.5 µM on TG1 (transglutaminase 1) and 1.54 µM in experiment [1].

For `CCOC(=O)/C=C/CC[C@H](NC(=O)c1ccccc1)C(=O)Nc1cccn(CC(=O)N[C@H](C(=O)O)[C@H](C)CC)c1=O` [A59, (2S,3R)-2-(2-(3-((S,E)-2-Benzamido-7-ethoxy-7-oxohept-5-enamido)-2-oxopyridin-1(2H)-yl)acetamido)-3-methylpentanoic acid], the values for the half-maximal inhibitory concentration (IC50) (at TG6 (transglutaminase 6); against TG1 (transglutaminase 1); in experiment [1]) were 9.3 µM, 37.1 µM and 0.461 µM, respectively.

With `CC[C@@H](C)[C@H](NC(=O)Cn1cccc(NC(=O)[C@H](CC/C=C/C(=O)OC)NC(=O)c2cncn2C)c1=O)C(=O)O` [A60, (2S,3R)-2-(2-(3-((S,E)-7-Methoxy-2-(1-methyl-1H-imidazole-5-carboxamido)-7-oxohept-5-enamido)-2-oxopyridin-1(2H)-yl)acetamido)-3-methylpentanoic acid], the values for the 50% inhibitory concentration (IC50) (against TG6 (transglutaminase 6); against TG1 (transglutaminase 1); in experiment [1]) were 11.5 µM, 31.1 µM and 0.112 µM, respectively.

`CC[C@@H](C)[C@H](NC(=O)Cn1cccc(NC(=O)[C@H](CC/C=C/C(=O)OC)NC(=O)c2ccccc2)c1=O)C(=O)O` [A61, (2S,3R)-2-(2-(3-((S,E)-2-benzamido-7-methoxy-7-oxohept-5-enamido)-2-oxopyridin-1(2H)-yl)acetamido)-3-methylpentanoic acid]: the IC50 at TG6 (transglutaminase 6) is 4.3 µM; against TG1 (transglutaminase 1) it was 15.3 µM; in experiment [1], 0.079 µM.

As to `CCOC(=O)/C=C/CC[C@H](NC(C)=O)C(=O)Nc1cccn(CC(=O)NCC(CC)CC)c1=O` [A62, (S,E)-Ethyl 6-acetamido-7-(1-(2-(2-ethylbutylamino)-2-oxoethyl)-2-oxo-1,2-dihydropyridin-3-ylamino)-7-oxohept-2-enoate], the IC50 on TG6 (transglutaminase 6) was 47 µM; against TG1 (transglutaminase 1), 133 µM; in experiment [1], 1.96 µM.

For `CCC(CC)CNC(=O)Cn1cccc(NC(=O)[C@H](CC/C=C/C(=O)OC)NC(=O)c2cncn2C)c1=O` [A63, (S,E)-Methyl 7-(1-(2-(2-ethylbutylamino)-2-oxoethyl)-2-oxo-1,2-dihydropyridin-3-ylamino)-6-(1-methyl-1H-imidazole-5-carboxamido)-7-oxohept-2-enoate], the IC50 on TG6 (transglutaminase 6) amounted to 31.5 µM; against TG1 (transglutaminase 1) it was 51.8 µM; in experiment [1], 0.218 µM.
